# In ChEMBL document CHEMBL3045685, “Discovery of bis-aromatic ring neonicotinoid analogues fixed as cis-configuration: Synthesis, insecticidal activities, and molecular docking studies” (2010):
# Legend:
# Format in all cases: functional
# Nilaparvata lugens [1] = assay: In vivo insecticidal activity against fifth-instar larval stage of Nilaparvata lugens (brown planthopper) in second semester rice seedlings assessed as insect mortality at 10 mg/L treated for 5 secs before larval infestation measured after 72 hr
# Nilaparvata lugens [2] = assay: In vivo insecticidal activity against fifth-instar larval stage of Nilaparvata lugens (brown planthopper) in second semester rice seedlings assessed as insect mortality at 100 mg/L treated for 5 secs before larval infestation measured after 72 hr
# Nilaparvata lugens [3] = assay: In vivo insecticidal activity against fifth-instar larval stage of Nilaparvata lugens (brown planthopper) in second semester rice seedlings assessed as insect mortality at 500 mg/L treated for 5 secs before larval infestation measured after 72 hr
SMILES,mortality at 10 µg/mL (Nilaparvata lugens [1]),mortality at 100 µg/mL (Nilaparvata lugens [2]),mortality at 500 µg/mL (Nilaparvata lugens [3])
CCN(Cc1ccc(Cl)nc1)C1=C([N+](=O)[O-])CN(c2ccccc2)CN1C,≥ 70%,≥ 90%,100%
CCN(Cc1ccc(Cl)nc1)C1=C([N+](=O)[O-])CN(Cc2ccc(Cl)nc2)CN1C,≥ 80%,100%,100%
CCN(Cc1ccc(Cl)nc1)C1=C([N+](=O)[O-])CN(Cc2ccccc2)CN1C,≥ 90%,100%,100%
CCN(Cc1ccc(Cl)nc1)C1=C([N+](=O)[O-])CN(Cc2ccc(OC)cc2)CN1C,–,≥ 50%,≥ 90%
CCN(Cc1ccc(Cl)nc1)/C(=C/[N+](=O)[O-])NC [NITENPYRAM],100%,100%,100%
CCN(Cc1ccc(Cl)nc1)C1=C([N+](=O)[O-])CN(Cc2ccc(C)cc2)CN1C,≥ 50%,≥ 70%,100%
"CCN(Cc1ccc(Cl)nc1)C1=C([N+](=O)[O-])CN(C(C)c2ccccc2)CN1C (single isomer, unassigned; (+))",≥ 80%,100%,100%
CCN(Cc1ccc(Cl)nc1)C1=C([N+](=O)[O-])CN(c2ccc(F)cc2)CN1C,≥ 80%,100%,100%
CCOC(=O)CN1CC([N+](=O)[O-])=C(N(CC)Cc2ccc(Cl)nc2)N(C)C1,≥ 90%,100%,100%
CCN(Cc1ccc(Cl)nc1)C1=C([N+](=O)[O-])CN(c2ccccc2OC)CN1C,≥ 60%,100%,100%
CCOC(=O)C(CC(C)C)N1CC([N+](=O)[O-])=C(N(CC)Cc2ccc(Cl)nc2)N(C)C1 (racemic),< 50%,≥ 50%,≥ 70%
CCN(Cc1ccc(Cl)nc1)C1=C([N+](=O)[O-])CN(C2CCCCC2)CN1C,≥ 60%,≥ 80%,≥ 90%
CCN(Cc1ccc(Cl)nc1)C1=C([N+](=O)[O-])CN(CCc2ccccc2)CN1C,≥ 80%,100%,100%
CCN(Cc1ccc(Cl)nc1)C1=C([N+](=O)[O-])CN(C(C)c2ccc(C)cc2)CN1C (racemic),≥ 70%,≥ 80%,≥ 90%
CCN(Cc1ccc(Cl)nc1)C1=C([N+](=O)[O-])CN(Cc2ccccn2)CN1C,≥ 70%,≥ 80%,100%
CCOC(=O)C(Cc1ccccc1)N1CC([N+](=O)[O-])=C(N(CC)Cc2ccc(Cl)nc2)N(C)C1 (racemic),≥ 60%,≥ 70%,≥ 80%
